This passage reports inhibition results from patent US20170057955A1, “Pyridopyrimidinone Compounds for Modulating the Catalytic Activity of Histone Lysine Demethylases (KDMs)” (Dong-A Socio Holdings Co., Ltd., priority 2015, published 2017).

This assay has as its target T1, Recombinant human JARID1B/KDM5B (Homo sapiens, UniProt Q9UGL1).
T1 construct: purchased Active Motif 31432; host or cells: Sf9 insect cells
In words: LANCE Ultra TR-FRET JARID1B (KDM5B) demethylase inhibition assay. Type of assay: biochemical. The following applies: 0.1 uM of test-compounds, FLAG-JARID1B, 500 nM biotinylated H3K4me3 peptide substrate, 30 min at room temperature. An excerpt: FLAG-tagged JARID1B (also known as KDM5B) protein was screened against 49 compounds. For this compound screening, LANCE Ultra time-resolved fluorescence resonance energy transfer (TR-FRET) assay was employed using a europoium (Eu)-labeled antibody that can specifically recognize mono- or dimethylated peptides (H3K4me2/1) and ULight-streptavidin (ULight-SA), a small molecule fluorescent dye. When irradiated at 340 nm, the energy from the Eu donor is transferred to the ULight acceptor dye which, in turn, emits light primarily at 665 nm. The ratio between the intensity of primary emission at 665 nm and that of secondary emission at […] was used to quantify the level of lysine methylation. As JARID1B removes more methyl moieties from tri-methylated substrate peptides (H3K4me3), the ratio increases until the enzyme reaction is terminated. In case, therefore, the compounds disrupt the enzymatic activity completely, the ratio becomes equal to a background value.
Recombinant human JARID1B/KDM5B (accession number NP_006609) of molecular weight 179.9 KDa was expressed in Sf9 insect cells and contains an N-terminal FLAG tag. The enzyme was obtained from Active Motif (Catalog No. 31432). The tri-methylated histone substrate peptide of purity greater than 95% was a synthetic peptide in which the first 21 amino acids correspond to the human histone H3 sequence with three extra amino acids and a biotin motif (GGK-biotin) linked to the C-terminus [sequence: ART-K(Me3)-QTARKSTGGKAPRKQLA-GGK-biotin-OH], (AnaSpec, Fremont, Calif. Catalog. No. ANA-1413). The reference inhibitor compound tranylcypromine (or trans-2-phenylcyclopropylamine hydrochloride, also known as, 2-PCPA) was purchased from Sigma (St. Louis, Mo. Cat. no. P8511). ULight-labeled streptavidin (ULight-SA, Catalog no. TRF0102), Eu-W1024-labeled anti-methyl-Histone H3 Lysine 4 (H3K4me1-2) Antibody (Catalog no. TRF0402), and LANCE detection buffer 10× (Catalog no. CR97-100) were obtained from PerkinElmer (Montreal, Quebec, Canada). The TR-FRET experiments were carried out in white, low-volume 384-wellplates purchased from PerkinElmer (ProxiPlate_-384 Plus, Catalog no. 6008280).
The TR-FRET signal was measured in the presence both of the bio-H3K4me3 peptide and FLAG-JARID1B by detecting any H3K4me2/1 peptide produced in the assay system. Assays using only the bio-H3K4me2 peptide were served as a positive control. Robust enzymatic progressions were observed by using JARID1B at concentrations ranging from 10 to 30 nM. In a typical TR-FRET experiment, JARID1B was pre-incubated with or without 0.1 uM of test-compounds (containing 1% DMSO final) for 5 min. The enzymatic reactions were initiated by the addition of 500 nM biotinylated H3K4me3 peptide substrate plus 500 uM of 2-OG 25 uM Fe(II) and 2 mM ascorbate. The reaction buffer also contained 50 mM Hepes (pH7.5), 0.01% (v/v) Tween 20, and 50 mM NaCl. The reaction mixture was incubated for 30 min at room temperature before reading on an EnVision plate reader (PerkinElmer, Waltham, Mass.).
For orientation: In TR-FRET formats the signal depends on donor and acceptor labels being close together.

T1 sequence (Q9UGL1 whole entry): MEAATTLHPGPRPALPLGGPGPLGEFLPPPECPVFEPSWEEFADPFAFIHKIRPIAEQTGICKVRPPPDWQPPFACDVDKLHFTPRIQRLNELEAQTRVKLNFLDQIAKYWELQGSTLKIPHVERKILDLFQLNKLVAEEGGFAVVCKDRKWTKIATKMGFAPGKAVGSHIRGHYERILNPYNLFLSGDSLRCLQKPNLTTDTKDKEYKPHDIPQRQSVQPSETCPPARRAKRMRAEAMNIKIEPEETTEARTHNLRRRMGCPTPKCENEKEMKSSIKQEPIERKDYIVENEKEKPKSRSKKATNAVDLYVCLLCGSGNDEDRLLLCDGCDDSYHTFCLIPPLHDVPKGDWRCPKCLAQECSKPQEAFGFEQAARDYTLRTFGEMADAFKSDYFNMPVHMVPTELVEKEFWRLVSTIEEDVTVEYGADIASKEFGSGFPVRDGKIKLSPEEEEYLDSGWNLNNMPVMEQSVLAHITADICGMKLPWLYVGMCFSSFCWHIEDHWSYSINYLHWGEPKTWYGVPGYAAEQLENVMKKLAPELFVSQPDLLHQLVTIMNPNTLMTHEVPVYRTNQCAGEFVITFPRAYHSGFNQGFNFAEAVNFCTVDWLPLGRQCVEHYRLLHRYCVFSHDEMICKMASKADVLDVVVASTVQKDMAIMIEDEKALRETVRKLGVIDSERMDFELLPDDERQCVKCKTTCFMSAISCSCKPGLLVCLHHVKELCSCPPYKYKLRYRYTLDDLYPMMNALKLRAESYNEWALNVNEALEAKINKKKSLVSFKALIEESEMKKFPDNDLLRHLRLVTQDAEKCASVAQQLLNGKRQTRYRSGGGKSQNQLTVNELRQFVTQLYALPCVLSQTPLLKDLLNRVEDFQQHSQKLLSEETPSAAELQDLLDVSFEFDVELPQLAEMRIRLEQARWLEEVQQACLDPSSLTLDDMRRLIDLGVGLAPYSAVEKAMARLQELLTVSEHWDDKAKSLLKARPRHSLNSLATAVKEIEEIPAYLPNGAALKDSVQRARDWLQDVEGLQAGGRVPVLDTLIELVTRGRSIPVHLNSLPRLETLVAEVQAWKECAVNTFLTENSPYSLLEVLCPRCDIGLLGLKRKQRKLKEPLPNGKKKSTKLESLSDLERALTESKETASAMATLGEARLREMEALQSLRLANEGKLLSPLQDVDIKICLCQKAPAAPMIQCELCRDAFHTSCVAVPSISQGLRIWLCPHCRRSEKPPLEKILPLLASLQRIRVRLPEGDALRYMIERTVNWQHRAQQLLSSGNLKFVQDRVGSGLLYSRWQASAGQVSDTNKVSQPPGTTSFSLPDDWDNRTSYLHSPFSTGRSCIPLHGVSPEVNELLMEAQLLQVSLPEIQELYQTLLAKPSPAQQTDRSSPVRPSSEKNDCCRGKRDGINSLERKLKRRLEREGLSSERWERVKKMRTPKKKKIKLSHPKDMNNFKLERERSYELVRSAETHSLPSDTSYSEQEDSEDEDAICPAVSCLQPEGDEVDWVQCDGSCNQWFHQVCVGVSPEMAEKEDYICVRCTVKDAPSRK

Usually inhibition stands for the share of the control response that was lost under treatment. Turning to `Nc1ncc(-c2nccc3c(=O)[nH]c(COc4ccc(Cc5ccccc5)cc4)nc23)s1` [Compound 68, 8-(2-aminothiazol-5-yl)-2-((4-benzylphenoxy)methyl) pyrido[3,4-d]pyrimidin-4(3H)-one], the inhibition at 0.1 µM is under 20%.

As for `O=c1[nH]c(CCc2ccccc2)nc2c(-c3csc(NCCO)n3)nccc12` [Compound 161, 8-(2-((2-hydroxyethyl)amino)thiazol-4-yl)-2-phenethylpyrido[3,4-d]pyrimidin-4(3H)-one], the inhibition at 0.1 µM lay in the range of 20 to 50%. For `O=c1[nH]c(COc2ccc(F)c(Cl)c2)nc2c(-c3csc(NC4CCN(Cc5ccccc5)C4)n3)nccc12` (stereo not drawn) [Compound 107, 8-(2-((1-benzylpyrrolidin-3-yl)amino)thiazol-4-yl)-2-((3-chloro-4-fluorophenoxy)methyl) pyrido[3,4-d]pyrimidin-4(3H)-one], the inhibition at 0.1 µM fell in the range of 20 to 50%.

With `CN1CCC(Nc2nc(-c3nccc4c(=O)[nH]cnc34)cs2)CC1` [Compound 50, 8-(2-((1-methylpiperidin-4-yl)amino)thiazol-4-yl)pyrido[3,4-d]pyrimidin-4(3H)-one], the inhibition at 0.1 µM lay in the range of 20 to 50%. `Cc1nc2c(-c3csc(NCCO)n3)nccc2c(=O)[nH]1` [Compound 137, 8-(2-((2-hydroxyethyl)amino)thiazol-4-yl)-2-methylpyrido [3,4-d]pyrimidin-4(3H)-one]: the inhibition at 0.1 µM was under 20%. Take `CN(C)CCNc1nc(-c2nccc3c(=O)[nH]c(COc4ccc(F)c(Cl)c4)nc23)cs1` [Compound 87, 2-((3-chloro-4-fluorophenoxy)methyl)-8-(2-((2-(dimethylamino)ethyl)amino)thiazol-4-yl)pyrido[3,4-d]pyrimidin-4(3H)-one]: the inhibition at 0.1 µM was at least 50%.

Take `CC(C)N1CCC(CNc2nc(-c3nccc4c(=O)[nH]cnc34)cs2)CC1` [Compound 55, 8-(2-(((1-isopropylpiperidin-4-yl)methyl)amino)thiazol-4-yl)pyrido[3,4-d]pyrimidin-4(3H)-one]: the inhibition at 0.1 µM is at least 50%. Take `CC(C)N1CCC(CNc2nc(-c3nccc4c(=O)[nH]c(COc5ccc(F)c(Cl)c5)nc34)cs2)CC1` [Compound 97, 2-((3-chloro-4-fluorophenoxy)methyl)-8-(2-(((1-isopropylpiperidin-4-yl)methyl)amino)thiazol-4-yl)pyrido[3,4-d]pyrimidin-4(3H)-one]: the inhibition at 0.1 µM was in the range of 20 to 50%. On to `Nc1nc(-c2nccc3c(=O)[nH]c(CCCc4ccccc4)nc23)cs1` [Compound 166, 8-(2-aminothiazol-4-yl)-2-(3-phenylpropyl)pyrido[3,4-d]pyrimidin-4(3H)-one], for which the inhibition at 0.1 µM fell in the range of 20 to 50%. In the case of `O=c1[nH]c(COc2ccc(Cl)cc2Cl)nc2c(-c3csc(NCCO)n3)nccc12` [Compound 135, 2-((2,4-dichlorophenoxy)methyl)-8-(2-((2-hydroxyethyl)amino)thiazol-4-yl)pyrido[3,4-d]pyrimidin-4(3H)-one], the inhibition at 0.1 µM was 20 to 50%. On to `O=c1[nH]cnc2c(-n3cc(-c4ccccc4Oc4ccccc4)cn3)nccc12` [Compound 10, 8-(4-(2-phenoxyphenyl)-1H-pyrazol-1-yl)pyrido[3,4-d]pyrimidin-4(3H)-one], for which the inhibition at 0.1 µM is under 20%. Consider `CC1CCN(c2cccc(-c3nccc4c(=O)[nH]c(COc5ccc(F)c(Cl)c5)nc34)n2)CC1` [Compound 115, 2-((3-chloro-4-fluorophenoxy)methyl)-8-(6-(4-methylpiperidin-1-yl)pyridin-2-yl)pyrido[3,4-d]pyrimidin-4(3H)-one], for which the inhibition at 0.1 µM is under 20%.

For `CN1CCN(Cc2cccc(-c3cnn(-c4nccc5c(=O)[nH]cnc45)c3)c2)CC1` [Compound 6, 8-(4-(3-((4-methylpiperazin-1-yl)methyl)phenyl)-1H-pyrazol-1-yl)pyrido[3,4-d]pyrimidin-4(3H)-one], the inhibition at 0.1 µM was under 20%.

`Nc1nn(-c2nccc3c(=O)[nH]cnc23)cc1-c1ccc(F)cc1` [Compound 23, 8-(3-amino-4-(4-fluorophenyl)-1H-pyrazol-1-yl)pyrido[3,4-d]pyrimidin-4(3H)-one]: the inhibition at 0.1 µM was at least 50%. Next, `CCOC(=O)c1nc(-c2nccc3c(=O)[nH]cnc23)cs1` [Compound 62, ethyl 4-(4-oxo-3,4-dihydropyrido[3,4-d]pyrimidin-8-yl)thiazole-2-carboxylate]: under 20%; `O=c1[nH]c(COc2ccc(F)c(Cl)c2)nc2c(-c3csc(NCC4CCNCC4)n3)nccc12` [Compound 99, 2-((3-chloro-4-fluorophenoxy)methyl)-8-(2-((piperidin-4-ylmethyl)amino)thiazol-4-yl)pyrido[3,4-d]pyrimidin-4(3H)-one]: 20 to 50%; `COCCNc1nc(-c2nccc3c(=O)[nH]cnc23)cs1` [Compound 42, 8-(2-((2-methoxyethyl)amino)thiazol-4-yl)pyrido[3,4-d]pyrimidin-4(3H)-one]: at least 50%. With `O=c1[nH]c(COc2ccc(F)c(Cl)c2)nc2c(-c3csc(NCC(O)c4ccncc4)n3)nccc12` (stereo not drawn) [Compound 111, 2-((3-chloro-4-fluorophenoxy)methyl)-8-(2-((2-hydroxy-2-(pyridin-4-yl)ethyl)amino)thiazol-4-yl)pyrido[3,4-d]pyrimidin-4(3H)-one], the inhibition at 0.1 µM was in the range of 20 to 50%. Next, `Nc1nn(-c2nccc3c(=O)[nH]cnc23)cc1-c1ccc(O)cc1` [Compound 25, 8-(3-amino-4-(4-hydroxyphenyl)-1H-pyrazol-1-yl)pyrido[3,4-d]pyrimidin-4(3H)-one]: 20 to 50%; `NCCNc1nc(-c2nccc3c(=O)[nH]c(COc4ccc(F)c(Cl)c4)nc23)cs1` [Compound 88, 8-(2-((2-aminoethyl)amino)thiazol-4-yl)-2-((3-chloro-4-fluorophenoxy)methyl) pyrido[3,4-d]pyrimidin-4(3H)-one]: at least 50%. Next, `Nc1nc(-c2nccc3c(=O)[nH]c(COc4ccc(F)c(Cl)c4)nc23)cs1` [Compound 104, 8-(2-aminothiazol-4-yl)-2-((3-chloro-4-fluorophenoxy)methyl) pyrido[3,4-d]pyrimidin-4(3H)-one]: 20 to 50%.

With `O=c1[nH]c(COCc2ccccc2)nc2c(-c3csc(NCC4CCN(CCO)CC4)n3)nccc12` [Compound 153, 2-((benzyloxy)methyl)-8-(2-(((1-(2-hydroxyethyl)piperidin-4-yl)methyl)amino)thiazol-4-yl)pyrido[3,4-d]pyrimidin-4(3H)-one], the inhibition at 0.1 µM is under 20%. Turning to `O=c1[nH]cnc2c(-c3csc(NCC4CCNCC4)n3)nccc12` [Compound 56, 8-(2-((piperidin-4-ylmethyl)amino)thiazol-4-yl)pyrido[3,4-d]pyrimidin-4(3H)-one], the inhibition at 0.1 µM was at least 50%. With `CCC(O)CNc1nc(-c2nccc3c(=O)[nH]c(COCc4ccccc4)nc23)cs1` (stereo not drawn) [Compound 143, 2-((benzyloxy)methyl)-8-(2-((2-hydroxybutyl)amino)thiazol-4-yl)pyrido[3,4-d]pyrimidin-4(3H)-one], the inhibition at 0.1 µM fell in the range of 20 to 50%. For the compound `O=c1[nH]cnc2c(-c3cnn(CCN4CCOCC4)c3)nccc12` [Compound 65, 8-(1-(2-morpholinoethyl)-1H-pyrazol-4-yl)pyrido[3,4-d]pyrimidin-4(3H)-one], the inhibition at 0.1 µM was in the range of 20 to 50%. Next, `Nc1nn(-c2nccc3c(=O)[nH]cnc23)cc1-c1ccc(N2CCNCC2)nc1` [Compound 14, 8-(3-amino-4-(6-(piperazin-1-yl)pyridin-3-yl)-1H-pyrazol-1-yl)pyrido[3,4-d]pyrimidin-4(3H)-one]: 20 to 50%.

For the compound `O=c1[nH]c(COc2ccc(F)c(Cl)c2)nc2c(-c3cccc(Cl)n3)nccc12` [Compound 114, 2-((3-chloro-4-fluorophenoxy)methyl)-8-(6-chloropyridin-2-yl)pyrido[3,4-d]pyrimidin-4(3H)-one], the inhibition at 0.1 µM is under 20%.
